This is an account of results in patent US20250034116A1, “1,4-DIHETEROCYCLIC SUBSTITUTED AROMATIC RING OR AROMATIC HETEROCYCLIC COMPOUND AND USE THEREOF” (BeBetter Med Inc., priority 2022, published 2025).

In general, IC50 refers to the midpoint of a concentration-inhibition curve.

For data set [1], the system named is CYP enzymes in human liver microsomes (HLM). Briefly: Inhibition of 20-HETE production in human liver microsomes (HLM). The data set is classed as biochemical. As to the method:
(§1) Experimental principle: The inhibitory activity of 20-HETE production is evaluated by testing the inhibitory effects of the compound on human liver microsomes (HLM), rat liver microsomes (RLM), mouse liver microsomes (MLM), or […] CYP4 subtype enzymes (CYP4F2). This assay employs HLM, RLM, or MLM along with recombinant CYP4F2 (rCYP4F2) and recombinant CYP4A11 (rCYP4A11), which are […] CYP4 subtype enzymes, to detect the effects of the test compound at different concentrations on the metabolic rate of enzyme-specific substrates, to determine the inhibitory effects of the test compound on CYP enzymes in HLM, RLM, or MLM.
(§2) Experimental methods: Dissolve the test compound in DMSO, and subsequently dilute it with an acetonitrile and DMSO mixture (3:1). Add 2 μl of varying concentrations of the test compound and 100 μl of potassium phosphate buffer containing either liver microsomes or recombinant enzymes to a 96-well plate. After mixing well, transfer 30 μl to another well (in duplicate), add 15 μl of 400 μM substrate solution, and mix well again. Preheat at 37° C. for 10 minutes, and then add 15 μl of 6 mM NADPH and incubate at 37° C. for 25 minutes. After 25 minutes, add 160 μl of acetonitrile solution (containing 0.1 μg/ml internal standard) to stop the reaction. Mix well, centrifuge at 3500 g for 15 minutes, and then analyze the supernatant using LC-MS/MS.
(§3) Plot the compound concentration on the x-axis and the inhibition rate on the y-axis to draw the curve. Use GraphPad Prism 5 software to fit the curve and calculate the IC50. The formula is Y=Bottom+(Top−Bottom)/(1+10^((Log IC50−X)×HillSlope)). X represents the logarithmic concentration of the inhibitor, and Y represents the relative enzyme activity at a given inhibitor concentration (relative to the condition without the inhibitor).
(§4) Calculate the inhibition percentages at concentrations of 1000 nM, 500 nM, or 100 nM as well as the half-maximal inhibitory concentration (IC50) of the test compound from the above experiment.

Data set [2] deals with CYP enzymes in rat liver microsomes (RLM). Briefly: Inhibition of 20-HETE production in rat liver microsomes (RLM). Format: biochemical. The protocol: as §1, §2, §3, §4
For orientation: Microsomes from liver hold many membrane-bound enzymes, among them those of drug oxidation.

Turning to `O=C(NCC1CCN(c2ccc(-c3cn[nH]c3)cc2)CC1)C1CCCC1` [Compound 46, N-((1-(4-(1H-pyrazol-4-yl)phenyl)piperidin-4-yl)methyl)cyclopentanecarboxamide], the IC50 in data set [1] was determined as 43.2 nM. Further, in data set [2], the midpoint of inhibition, the IC50, lay at 942 nM and the “RLM (% inh @ 500 nM)” value is reported as 35.54%.

For the molecule `O=C1CCCN1CC1CCN(c2ccc(-c3cn[nH]c3)cc2CO)CC1` [Compound 17, 1-((1-(2-(hydroxymethyl)-4-(1H-pyrazol-4-yl)phenyl)piperidin-4-yl)methyl)pyrrolidin-2-one], in data set [1], the “HLM (% inh @ 500 nM)” value was 65.27%. In data set [2], the “RLM (% inh @ 500 nM)” value was found to be 17.66%.

For the molecule `COC(=O)c1cc(-c2cn[nH]c2)ccc1N1CCC(CN2CCCC2=O)CC1` [Compound 18, methyl 2-(4-((2-oxopyrrolidin-1-yl)methyl)piperidin-1-yl)-5-(1H-pyrazol-4-yl)benzoate], the “HLM (% inh @ 500 nM)” value in data set [1] is 47.87%. Moreover, in data set [2], the “RLM (% inh @ 500 nM)” value is 8.61%.

Regarding `O=C1C2CCC(C2)N1CC1CCN(c2ccc(-c3cn[nH]c3)cc2)CC1` (stereo not shown) [Compound 33, 2-((1-(4-(1H-pyrazol-4-yl)phenyl)piperidin-4-yl)methyl)-2-azabicyclo[2.2.1]heptan-3-one], the “HLM (% inh @ 500 nM)” value in data set [1] was determined as 61.47%. Further, the “RLM (% inh @ 500 nM)” value in data set [2] is 8.80%.

For `O=C1CCCN1CC1CCN(c2ccc(-c3cc[nH]n3)c(F)c2F)CC1` [Compound 77, 1-((1-(2,3-difluoro-4-(1H-pyrazol-3-yl)phenyl)piperidin-4-yl)methyl)pyrrolidin-2-one], the “HLM (% inh @ 500 nM)” value in data set [1] was 86.12%. Moreover, in data set [2], the “RLM (% inh @ 500 nM)” value was determined as 62.98%.

Turning to `N#Cc1cc(-c2cn[nH]c2)ccc1N1CCC(CN2CCCC2=O)CC1` [Compound 13, 2-(4-((2-oxopyrrolidin-1-yl)methyl)piperidin-1-yl)-5-(1H-pyrazol-4-yl)benzonitrile], the “HLM (% inh @ 500 nM)” value in data set [1] is 58.98%. Also, the “RLM (% inh @ 500 nM)” value in data set [2] is −4.72%.

Regarding `CCCCCCC(=O)NCC1CCN(c2ccc(-c3cn[nH]c3)cc2)CC1` [Compound 44, N-((1-(4-(1H-pyrazol-4-yl)phenyl)piperidin-4-yl)methyl) heptylamide], the 50% inhibitory concentration (IC50) in data set [1] was 25.2 nM; in data set [2] it was 33.8 nM. Besides, in data set [1], the “HLM (% inh @ 500 nM)” value turned out to be 85.05%.

For `O=C(C1CCN(c2ccc(-c3cn[nH]c3)cc2)CC1)N1CC2CCC1C2` (stereo not shown) [Compound 65, (1-(4-(1H-pyrazol-4-yl)phenyl)piperidin-4-yl)(2-azabicyclo[2.2.1]heptane-2-yl) methanone], the “HLM (% inh @ 500 nM)” value in data set [1] is 52.63%. In addition, the “RLM (% inh @ 500 nM)” value in data set [2] turned out to be 2.30%.

For `O=C1CCCN1CC1CCN(c2ccc(-c3cc[nH]n3)cc2F)CC1` [Compound 76, 1-((1-(2-fluoro-4-(1H-pyrazol-3-yl)phenyl)piperidin-4-yl)methyl)pyrrolidin-2-one], the “HLM (% inh @ 500 nM)” value in data set [1] is on record as 80.70%. Further, the “RLM (% inh @ 500 nM)” value in data set [2] was found to be 40.73%.

Regarding `O=C1CCCN1C1CCN(c2ccc(-c3cn[nH]c3)cc2)CC1` [Compound 73, 1-(1-(4-(1H-pyrazol-4-yl)phenyl)piperidin-4-yl) pyrrolidin-2-one], in data set [1], the “HLM (% inh @ 500 nM)” value turned out to be 65.78%. The “RLM (% inh @ 500 nM)” value in data set [2] was 29.56%.

For the molecule `O=C(N1CCCC1)N1CC2CCC(C1)N2c1ccc(-c2cn[nH]c2)c(F)c1F` [Compound 128, (8-(2,3-difluoro-4-(1H-pyrazol-4-yl)phenyl)-3,8-diazabicyclo[3.2.1]octan-3-yl)(pyrrolidin-1-yl) methanone], the “HLM (% inh @ 500 nM)” value in data set [1] stood at 89.99%. Besides, the “RLM (% inh @ 500 nM)” value in data set [2] came out at 62.11%.

`O=C1CCCN1CCC1CCN(c2ccc(-c3cn[nH]c3)cc2)CC1` [Compound 48, 1-(2-(1-(4-(1H-pyrazol-4-yl)phenyl)piperidin-4-yl)ethyl)pyrrolidin-2-one]: in data set [1], the “HLM (% inh @ 500 nM)” value stood at 73.42%. Also, the “RLM (% inh @ 500 nM)” value in data set [2] is 39.97%.

As for `C=CCCCCCC(=O)NCC1CCN(c2ccc(-c3cn[nH]c3)cc2)CC1` [Compound 115, N-((1-(4-(1H-pyrazol-4-yl)phenyl)piperidin-4-yl)methyl)oct-7-enamide], the IC50 in data set [1] is 20.8 nM; in data set [2], 26.2 nM. Moreover, the “HLM (% inh @ 500 nM)” value in data set [1] came out at 85.21%.

`O=C(C1CCCC1)N1CCC(c2c(F)cc(-c3cn[nH]c3)cc2F)CC1` [Compound 99, cyclopentyl(4-(2,6-difluoro-4-(1H-pyrazol-4-yl)phenyl)piperidin-1-yl) methanone]: the “HLM (% inh @ 500 nM)” value in data set [1] was found to be 96.13%. Also, in data set [2], the “RLM (% inh @ 500 nM)” value came out at 74.05%.

Turning to `C[C@H]1CN(C(=O)N2CCCC2)CCN1c1ccc(-c2cn[nH]c2)c(F)c1F` [Compound 102, (S)-(4-(2,3-difluoro-4-(1H-pyrazol-4-yl)phenyl)-3-methylpiperazin-1-yl)(pyrrolidin-1-yl) methanone], in data set [1], the “HLM (% inh @ 500 nM)” value amounted to 84.23%. Moreover, in data set [2], the “RLM (% inh @ 500 nM)” value turned out to be 76.10%.

Take `O=C(C1CCCCC1)N1CCC(c2ccc(-c3cn[nH]c3)c(F)c2F)CC1` [Compound 97, cyclohexyl(4-(2,3-difluoro-4-(1H-pyrazol-4-yl)phenyl)piperidin-1-yl) methanone]: the IC50 came out at 25.6 nM in data set [1] and 25.4 nM in data set [2]. In addition, the “HLM (% inh @ 500 nM)” value in data set [1] came out at 95.80%.

Take `O=C(C1CCN(c2ccc(-c3cn[nH]c3)cc2)CC1)N1CC2(CCC2)C1` [Compound 67, (1-(4-(1H-pyrazol-4-yl)phenyl)piperidin-4-yl)(2-azaspiro[3.3]heptane-2-yl) methanone]: in data set [1], the “HLM (% inh @ 500 nM)” value was 55.57%. The “RLM (% inh @ 500 nM)” value in data set [2] is 30.84%.

For `O=S(=O)(c1ccc(F)cc1)N1CCC(c2ccc(-c3cn[nH]c3)cc2F)CC1` [Compound 120, 4-(2-fluoro-4-(1H-pyrazol-4-yl)phenyl)-1-((4-fluorophenyl)sulfonyl)piperidine], in data set [1], half-maximal inhibition (IC50) required 16.1 nM and the “HLM (% inh @ 500 nM)” value was determined as 93.40%. Also, in data set [2], half-maximal inhibition (IC50) was put at 107 nM and the “RLM (% inh @ 500 nM)” value was determined as 71.20%.

For `CCCCCC1CCC(C(=O)N2CCC(c3ccc(-c4cn[nH]c4)c(F)c3F)CC2)CC1` (stereo not shown) [Compound 112, (4-(2,3-difluoro-4-(1H-pyrazol-4-yl)phenyl)piperidin-1-yl)((1s,4r)-4-pentylcyclohexyl) methanone], the “HLM (% inh @ 500 nM)” value in data set [1] is on record as 70.73%. For the same molecule, the “RLM (% inh @ 500 nM)” value in data set [2] is 71.58%.

Consider `O=C1CCCN1CC1CCN(c2ccc(-c3cnoc3)c(F)c2F)CC1` [Compound 37, 1-((1-(2,3-difluoro-4-(isoxazol-4-yl)phenyl)piperidin-4-yl)methyl)pyrrolidin-2-one], for which the “HLM (% inh @ 500 nM)” value in data set [1] is recorded as 82.89%. Also, the “RLM (% inh @ 500 nM)” value in data set [2] turned out to be 59.01%.

Regarding `O=C(NCc1ccccc1)N1CCN(c2ccc(-c3cn[nH]c3)c(F)c2F)CC1` [Compound 94, N-benzyl-4-(2,3-difluoro-4-(1H-pyrazol-4-yl)phenyl)piperazine-1-carboxamide], the “HLM (% inh @ 500 nM)” value in data set [1] is recorded as 92.79%. In addition, in data set [2], the midpoint of inhibition, the IC50, lay at 148 nM and the “RLM (% inh @ 500 nM)” value turned out to be 73.06%.

Take `Clc1ccc(CC2CCN(c3ccc(-c4cn[nH]c4)cc3)CC2)cc1` [Compound 41, 1-(4-(1H-pyrazol-4-yl)phenyl)-4-(4-chlorobenzyl)piperidine]: the “HLM (% inh @ 500 nM)” value in data set [1] came to 57.77%. The “RLM (% inh @ 500 nM)” value in data set [2] was determined as 15.76%.

For the molecule `O=C(C1CCCC1)N1CCC(c2ccc(-c3cn[nH]c3)cc2F)CC1` [Compound 138, cyclopentyl(4-(2-fluoro-4-(1H-pyrazol-4-yl)phenyl)piperidin-1-yl) methanone], the “HLM (% inh @ 500 nM)” value in data set [1] came out at 92.84%. Besides, the “RLM (% inh @ 500 nM)” value in data set [2] is listed as 77.16%.

`O=C(NC1CCN(c2ccc(-c3cn[nH]c3)cc2)CC1)C1CCCC1` [Compound 69, N-(1-(4-(1H-pyrazol-4-yl)phenyl)piperidin-4-yl)cyclopentanecarboxamide]: the “HLM (% inh @ 500 nM)” value in data set [1] is given as 76.97%. Further, the “RLM (% inh @ 500 nM)” value in data set [2] came to 43.82%.

Turning to `O=C1CCCN1CC1CCN(c2ccc(-c3cn[nH]c3)cc2C(F)(F)F)CC1` [Compound 10, 1-((1-(4-(1H-pyrazol-4-yl)-2-(trifluoromethyl)phenyl)piperidin-4-yl)methyl)pyrrolidin-2-one], the half-inhibitory concentration (IC50) in data set [1] is 46.1 nM; in data set [2], 542 nM.

Turning to `O=C(NCc1ccccc1)C1CCN(c2ccc(-c3cn[nH]c3)c(F)c2F)CC1` [Compound 95, N-benzyl-1-(2,3-difluoro-4-(1H-pyrazol-4-yl)phenyl)piperidine-4-carboxamide], in data set [1], the half-inhibitory concentration (IC50) was found to be 19.4 nM and the “HLM (% inh @ 500 nM)” value was found to be 94.96%. Further, in data set [2], the IC50 is 341 nM and the “RLM (% inh @ 500 nM)” value amounted to 61.73%.

As to `O=C1c2ccccc2CCN1CC1CCN(c2ccc(-c3cn[nH]c3)cc2)CC1` [Compound 42, 2-((1-(4-(1H-pyrazol-4-yl)phenyl)piperidin-4-yl)methyl)-3,4-dihydroisoquinolin-1(2H)-one], it took 32.8 nM to reach half-maximal inhibition in data set [1] (IC50). In data set [2], the IC50 came to 605 nM and the “RLM (% inh @ 500 nM)” value is listed as 25.96%.
